From ChEMBL document CHEMBL1141478, “Lysianadioic acid, a carboxypeptidase B inhibitor from Lysiana subfalcata” (Bioorg Med Chem Lett, 2008) come the findings set out here.

One may read the IC50 as the concentration needed to halve the response being measured.

The assay concerns the target T1, Carboxypeptidase B (Homo sapiens, UniProt P15086).
T1 sequence (P15086 whole entry): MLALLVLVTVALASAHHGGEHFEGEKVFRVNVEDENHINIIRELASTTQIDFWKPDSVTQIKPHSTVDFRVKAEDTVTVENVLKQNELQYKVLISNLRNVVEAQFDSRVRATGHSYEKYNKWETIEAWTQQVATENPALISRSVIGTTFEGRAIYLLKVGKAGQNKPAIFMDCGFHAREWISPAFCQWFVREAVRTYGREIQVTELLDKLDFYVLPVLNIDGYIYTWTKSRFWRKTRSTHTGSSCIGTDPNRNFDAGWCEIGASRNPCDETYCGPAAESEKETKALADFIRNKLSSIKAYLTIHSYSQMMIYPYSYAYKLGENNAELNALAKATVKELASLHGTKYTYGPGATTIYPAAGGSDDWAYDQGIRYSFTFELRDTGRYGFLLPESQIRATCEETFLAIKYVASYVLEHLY
Kind of assay: Inhibition of carboxypeptidase B.

Molecule `N=C(N)NCC/C=C(/CC(=O)O)C(=O)O` [LYSIANADIOIC ACID] gave an IC50 of 360 nM.
